Test results from patent US20110028490A1, “4-PHENYL-PIPERAZIN-1-YL-ALKYL-BENZOIMIDAZOL-2-ONE DERIVATIVES AND THEIR USE AS MONOAMINE NEUROT[…]-UPTAKE IN-HIBITORS” (N[…]/S, priority 2008, published 2011).
Structures can show the parent of a compound that is named as a salt.

Legend:
Format in all cases: biochemical
[1] = tested on: serotonine (5-HT) reuptake in synaptosomes; test: Inhibition of 5-HT reuptake in synaptosomes; settings: 3H-5-HT, read-out: 5-HT-uptake IC50
Description: (§1) Compounds were tested for their ability to inhibit the reuptake of the monoamine neurotransmitters dopamine (DA) noradrenaline (NA) and serotonine (5-HT) in synaptosomes as described in WO 97/16451 (NeuroSearch A/S).
(§2) The test values are given as IC50 (the concentration (μM) of the test substance which inhibits the specific binding of ^3H-DA, ^3H-NA, or ^3H-5-HT by 50%).

[2] = tested on: noradrenaline (NA) reuptake in synaptosomes; test: Inhibition of NA reuptake in synaptosomes; settings: 3H-NA, read-out: NA-uptake IC50
Description: as §1, §2

[3] = tested on: dopamine (DA) reuptake in synaptosomes; test: Inhibition of DA reuptake in synaptosomes; settings: 3H-DA, read-out: DA-uptake IC50
Description: as §1, §2

Row | Structure (SMILES) | IC50 [1] | IC50 [2] | IC50 [3]
1 | C=C(C)n1c(=O)n(CCN2CCN(c3ccc(Cl)c(Cl)c3)CC2)c2ccccc21 [Compound A1, 1-{2-[4-(3,4-Dichloro-phenyl)-piperazin-1-yl]-ethyl}-3-isopropenyl-1,3-dihydro-benzoimidazol-2-one fumaric acid salt] | 1 nM | 1070 nM | 1100 nM
2 | O=c1n(CCN2CCN(c3ccc(Cl)cc3)CC2)c2ccccc2n1C1=CCCCC1 [Compound A3, 1-{2-[4-(4-Chloro-phenyl)-piperazin-1-yl]-ethyl}-3-cyclohex-1-enyl-1,3-dihydro-benzoimidazol-2-one fumaric acid salt] | 22 nM | > 1000 nM | 430 nM
